Activity calls are given as the source filed them.
How the values were obtained:
Mus musculus [1] = test: Toxicity found after a single intramuscular injection in mice; conditions: in vivo, im
Mus musculus [2] = species on record: Mus musculus; test: Toxicity in the P388 NCI screen defined as the dose that caused an average wt. loss>3g in at least one out of set of mice or the death of one or more of mice; type: organism-based; conditions: in vivo
P388 [3] = test: Potency against lymphocytic leukemia P388 screen in mice.; type: functional, Mus musculus
Mus musculus [4] = species on record: Mus musculus; test: Toxicity in the P388 NCI screen in second assay.; type: organism-based; conditions: in vivo
[5] = system: Tubulin (Rattus norvegicus); conditions: Brain, at 25 µM
P388 [6] = test: Potency against lymphocytic leukemia P388 screen in mice; inactive; type: functional, cell-based; conditions: Mus musculus

Row | Binding [5] [%] | Structure (SMILES) | Toxicity (Mus musculus [1]) [µM/kg] | Toxicity (Mus musculus [2]) [µM/kg] | Potency (P388 [3]) [µM/kg] | Toxicity (Mus musculus [4]) [µM/kg] | Potency (P388 [6])
1 |  | COc1c2c(cc3c1-c1ccc(OC)c(=O)cc1[C@@H](NC(C)=O)CC3)OCO2 | 9.7 | 39.1 | <10 |  | 
2 |  | CCC(=O)N[C@H]1CCc2cc(OC)c(OC)c(OC)c2-c2ccc(OC)c(=O)cc21 | 8.2 |  |  |  | 
3 |  | CCOC(=O)N[C@H]1CCc2cc(OC)c(OC)c(OC)c2-c2ccc(OC)c(=O)cc21 |  | 11.7 |  | 1.5 | 
4 |  | COc1c(O)c(O)cc2c1-c1ccc(OC)c(=O)cc1[C@@H](NC(C)=O)CC2 | > 450 | 54 | 20 |  | 
5 | 41 | COc1cc2c(c(OC)c1OC)-c1ccc(OC)c(=O)cc1[C@@H](NC(=O)/C=C(\C)C=C=C(C)/C=C/C1=C(C)CCCC1(C)C)CC2 |  |  |  |  | 
6 |  | COc1cc2c(c(OC)c1OC)-c1ccc(OC)c(=O)cc1[C@@H](NC(=O)C(C)(C)C)CC2 | 9.3 |  |  |  | 
7 | 69 | COc1cc(/C=C/C(=O)N[C@H]2CCc3cc(OC)c(OC)c(OC)c3-c3ccc(OC)c(=O)cc32)cc(OC)c1O |  |  |  |  | 
8 |  | COc1cc2c(c(OC)c1OC)-c1ccc(OC)c(=O)cc1[C@@H](NC(=O)CO)CC2 [COLCHIFOLINE] | 3.9 | 3 | 0.7 |  | 
9 |  | COc1cc2c(c(OC)c1OC)-c1cccc(=O)cc1[C@@H](NC(C)=O)CC2 [CHOLCHICIDE] | 168.9 | 54.2 | 9.2 |  | 
10 |  | COc1cc2c(c3c1OCO3)-c1ccc(OC)c(=O)cc1[C@@H](NC(C)=O)CC2 | > 167 | 104 |  |  | inactive
11 | 52 | COc1cc2c(c(OC)c1Oc1nnnn1-c1ccccc1)-c1ccc(OC)c(=O)cc1[C@@H](NC(C)=O)CC2 |  |  |  |  | 
12 | 0 | COc1cc2c(c(OC)c1OC)-c1ccc(=O)c(OC)cc1[C@@H](NC(=O)CO)CC2 |  |  |  |  | 
13 |  | CCOCC(=O)N[C@H]1CCc2cc(OC)c(OC)c(OC)c2-c2ccc(OC)c(=O)cc21 | 9 | 2.8 | 0.4 |  | 
14 | 10 | CCC(=O)N[C@H]1CCc2cc(OC)c(OC)c(OC)c2-c2ccc(=O)c(OC)cc21 |  |  |  |  | 
15 |  | COc1cc(C(=O)N[C@H]2CCc3cc(OC)c(OC)c(OC)c3-c3ccc(OC)c(=O)cc32)cc(OC)c1OC | > 180 | 72.6 | 14 |  | 
16 |  | CCCC(=O)N[C@H]1CCc2cc(OC)c(OC)c(OC)c2-c2ccc(OC)c(=O)cc21 | 5.8 | 5.8 | 0.7 |  | 
17 |  | COc1cc2c(c(OC)c1OC)-c1ccc(OC)c(=O)cc1[C@@H](NC(C)=O)CC2 [COLCHICINE] | 3 | 2.5 | 0.4 |  | 
18 |  | COc1cc2c(c(O)c1O)-c1ccc(OC)c(=O)cc1[C@@H](NC(C)=O)CC2 | > 450 | > 320 |  |  | inactive
19 |  | COc1cc2c(c(OC)c1OC)-c1ccc(OC)c(=O)cc1[C@@H](NC(=O)c1ccccc1)CC2 | 60.5 | 4.3 | 1 |  | 
20 | 27 | COc1c(Oc2nnnn2-c2ccccc2)cc2c(c1OC)-c1ccc(OC)c(=O)cc1[C@@H](NC(C)=O)CC2 |  |  |  |  | 
21 |  | COc1cc2c(c(OC)c1OC)-c1ccc(OC)c(=O)cc1[C@@H](NC(=O)COc1ccccc1)CC2 | 61.3 | 5.1 | 1.3 |  | 

Row | Structure (SMILES) | Binding [5] [%] | Toxicity (Mus musculus [1]) [µM/kg] | Toxicity (Mus musculus [2]) [µM/kg] | Potency (P388 [3]) [µM/kg] | Toxicity (Mus musculus [4]) [µM/kg] | Potency (P388 [6])
22 | COc1cc2c(c(OC)c1O)-c1ccc(OC)c(=O)cc1[C@@H](NC(=O)C(F)(F)F)CC2 | 96 | 32.5 | 23.5 | 3.8 |  | 
23 | COc1cc2c(c(OC)c1OC)-c1ccc(OC)c(=O)cc1[C@@H](N(C)C(=O)CO)CC2 | 99 | 14.5 | 2.9 | 0.6 |  | 
